Test results published in ChEMBL document CHEMBL1123046, “11C-labeled 4-isopropylantipyrine: preparation and biological evaluation as a blood flow tracer in positron emission tomography (PET)” (1985).

Key:
Rattus norvegicus [1] = organism: Rattus norvegicus; test: Compound was evaluated for the measurement of Cerebral blood flow in habenula of Rats (hypercapnia); assay type: functional
Rattus norvegicus [2] = organism: Rattus norvegicus; test: Compound was evaluated for the measurement of Cerebral blood flow in piriform cortex of Rats (hypercapnia); assay type: functional
Rattus norvegicus [3] = organism: Rattus norvegicus; test: Compound was evaluated for the measurement of Cerebral blood flow in thalamus of Rats (normocapnia); assay type: functional
Rattus norvegicus [4] = organism: Rattus norvegicus; test: Compound was evaluated for the measurement of Cerebral blood flow in cingulate cortex of Rats (normocapnia); assay type: functional, Brain
Rattus norvegicus [5] = organism: Rattus norvegicus; test: Compound was evaluated for the measurement of Cerebral blood flow in superior coliculus of Rats (normocapnia); assay type: functional, Brain
Rattus norvegicus [6] = organism: Rattus norvegicus; test: Compound was evaluated for the measurement of Cerebral blood flow in frontal cortex of Rats (hypercapnia); assay type: functional
Rattus norvegicus [7] = organism: Rattus norvegicus; test: Compound was evaluated for the measurement of Cerebral blood flow in habenula of Rats (normocapnia); assay type: functional
Rattus norvegicus [8] = organism: Rattus norvegicus; test: Compound was evaluated for the measurement of Cerebral blood flow in hypothalamus of Rats (hypercapnia); assay type: functional
Rattus norvegicus [9] = organism: Rattus norvegicus; test: Compound was evaluated for the measurement of Cerebral blood flow in hypothalamus of Rats (normocapnia); assay type: functional
Rattus norvegicus [10] = organism: Rattus norvegicus; test: Compound was evaluated for the measurement of Cerebral blood flow in medial geniculate body of Rats (normocapnia); assay type: functional
Rattus norvegicus [11] = organism: Rattus norvegicus; test: Compound was evaluated for the measurement of Cerebral blood flow in visual cortex of Rats (normocapnia); assay type: functional
Rattus norvegicus [12] = organism: Rattus norvegicus; test: Compound was evaluated for the measurement of Cerebral blood flow in cerebellum of Rats (hypercapnia); assay type: functional
Rattus norvegicus [13] = organism: Rattus norvegicus; test: Compound was evaluated for the measurement of Cerebral blood flow in parietal cortex of Rats (hypercapnia); assay type: functional
Rattus norvegicus [14] = organism: Rattus norvegicus; test: Compound was evaluated for the measurement of Cerebral blood flow in caudoputamen of Rats (normocapnia); assay type: functional, Brain
Rattus norvegicus [15] = organism: Rattus norvegicus; test: Compound was evaluated for the measurement of Cerebral blood flow in globus pallidus of Rats (hypercapnia); assay type: functional
Rattus norvegicus [16] = organism: Rattus norvegicus; test: Compound was evaluated for the measurement of Cerebral blood flow in amygdala of Rats (normocapnia); assay type: functional
Rattus norvegicus [17] = organism: Rattus norvegicus; test: Compound was evaluated for the measurement of Cerebral blood flow in cerebellum of Rats (normocapnia); assay type: functional
Rattus norvegicus [18] = organism: Rattus norvegicus; test: Compound was evaluated for the measurement of Cerebral blood flow in hippocampus cortex of Rats (normocapnia); assay type: functional
Rattus norvegicus [19] = organism: Rattus norvegicus; test: Compound was evaluated for the measurement of Cerebral blood flow in globus pallidus of Rats (normocapnia); assay type: functional
Rattus norvegicus [20] = organism: Rattus norvegicus; test: Compound was evaluated for the measurement of Cerebral blood flow in medial geniculate body of Rats (hypercapnia); assay type: functional
Rattus norvegicus [21] = organism: Rattus norvegicus; test: Compound was evaluated for the measurement of Cerebral blood flow in sensorimotor cortex of Rats (hypercapnia); assay type: functional, Brain
Rattus norvegicus [22] = organism: Rattus norvegicus; test: Compound was evaluated for the measurement of Cerebral blood flow in lateral geniculate body of Rats (hypercapnia); assay type: functional
Rattus norvegicus [23] = organism: Rattus norvegicus; test: Compound was evaluated for the measurement of Cerebral blood flow in substantia nigra of Rats (hypercapnia); assay type: functional
Rattus norvegicus [24] = organism: Rattus norvegicus; test: Compound was evaluated for the measurement of Cerebral blood flow in hippocampus cortex of Rats (hypercapnia); assay type: functional
Rattus norvegicus [25] = organism: Rattus norvegicus; test: Compound was evaluated for the measurement of Cerebral blood flow in cingulate cortex of Rats (hypercapnia); assay type: functional, Brain
Rattus norvegicus [26] = organism: Rattus norvegicus; test: Compound was evaluated for the measurement of Cerebral blood flow in sensorimotor cortex of Rats (normocapnia); assay type: functional, Brain
Rattus norvegicus [27] = organism: Rattus norvegicus; test: Compound was evaluated for the measurement of Cerebral blood flow in inferior coliculus of Rats (normocapnia); assay type: functional, Brain
Rattus norvegicus [28] = organism: Rattus norvegicus; test: Compound was evaluated for the measurement of Cerebral blood flow in septal nucleus of Rats (normocapnia); assay type: functional, Brain
Rattus norvegicus [29] = organism: Rattus norvegicus; test: Compound was evaluated for the measurement of Cerebral blood flow in inferior coliculus of Rats (hypercapnia); assay type: functional, Brain
Rattus norvegicus [30] = organism: Rattus norvegicus; test: Compound was evaluated for the measurement of Cerebral blood flow in nucleus ruber of Rats (normocapnia); assay type: functional, Brain
Rattus norvegicus [31] = organism: Rattus norvegicus; test: Compound was evaluated for the measurement of Cerebral blood flow in auditory cortex of Rats (normocapnia); assay type: functional
Rattus norvegicus [32] = organism: Rattus norvegicus; test: Compound was evaluated for the measurement of Cerebral blood flow in nucleus accumbens of Rats (hypercapnia); assay type: functional, Brain
Rattus norvegicus [33] = organism: Rattus norvegicus; test: Compound was evaluated for the measurement of Cerebral blood flow in frontal cortex of Rats (normocapnia); assay type: functional
Rattus norvegicus [34] = organism: Rattus norvegicus; test: Compound was evaluated for the measurement of Cerebral blood flow in nucleus accumbens of Rats (normocapnia); assay type: functional, Brain
Rattus norvegicus [35] = organism: Rattus norvegicus; test: Compound was evaluated for the measurement of Cerebral blood flow in thalamus of Rats (hypercapnia); assay type: functional
Rattus norvegicus [36] = organism: Rattus norvegicus; test: Compound was evaluated for the measurement of Cerebral blood flow in piriform cortex of Rats (normocapnia); assay type: functional
Rattus norvegicus [37] = organism: Rattus norvegicus; test: Compound was evaluated for the measurement of Cerebral blood flow in septal nucleus of Rats (hypercapnia); assay type: functional, Brain
Rattus norvegicus [38] = organism: Rattus norvegicus; test: Compound was evaluated for the measurement of Cerebral blood flow in auditory cortex of Rats (hypercapnia); assay type: functional
Rattus norvegicus [39] = organism: Rattus norvegicus; test: Compound was evaluated for the measurement of Cerebral blood flow in superior coliculus of Rats (hypercapnia); assay type: functional, Brain
Rattus norvegicus [40] = organism: Rattus norvegicus; test: Compound was evaluated for the measurement of Cerebral blood flow in lateral geniculate body of Rats (normocapnia); assay type: functional
Rattus norvegicus [41] = organism: Rattus norvegicus; test: Compound was evaluated for the measurement of Cerebral blood flow in amygdala of Rats (hypercapnia); assay type: functional
Rattus norvegicus [42] = organism: Rattus norvegicus; test: Compound was evaluated for the measurement of Cerebral blood flow in parietal cortex of Rats (normocapnia); assay type: functional
Rattus norvegicus [43] = organism: Rattus norvegicus; test: Compound was evaluated for the measurement of Cerebral blood flow in visual cortex of Rats (hypercapnia); assay type: functional
Rattus norvegicus [44] = organism: Rattus norvegicus; test: Compound was evaluated for the measurement of Cerebral blood flow in caudoputamen of Rats ((hypercapnia); assay type: functional, Brain
Rattus norvegicus [45] = organism: Rattus norvegicus; test: Compound was evaluated for the measurement of Cerebral blood flow in nucleus ruber of Rats (hypercapnia); assay type: functional, Brain
Rattus norvegicus [46] = organism: Rattus norvegicus; test: Compound was evaluated for the measurement of Cerebral blood flow in substantia nigra of Rats (normocapnia); assay type: functional

`Cc1c(I)c(=O)n(-c2ccccc2)n1C` [IODOANTIPYRINE] was tested, and the Blood flow (Rattus norvegicus [1]) was 5.23 100ml g-1 min-1, the Blood flow (Rattus norvegicus [2]) was 3.11 100ml g-1 min-1 and the Blood flow (Rattus norvegicus [3]) was 1.63 100ml g-1 min-1. For the same compound, the Blood flow (Rattus norvegicus [4]) was 1.33 100ml g-1 min-1, the Blood flow (Rattus norvegicus [5]) was 1.48 100ml g-1 min-1 and the Blood flow (Rattus norvegicus [6]) was 4.67 100ml g-1 min-1. The Blood flow (Rattus norvegicus [7]) was 1.64 100ml g-1 min-1, the Blood flow (Rattus norvegicus [8]) was 3.14 100ml g-1 min-1 and the Blood flow (Rattus norvegicus [9]) was 1.05 100ml g-1 min-1. For the same compound, the Blood flow (Rattus norvegicus [10]) was 1.82 100ml g-1 min-1, the Blood flow (Rattus norvegicus [11]) was 1.52 100ml g-1 min-1 and the Blood flow (Rattus norvegicus [12]) was 2.7 100ml g-1 min-1. The Blood flow (Rattus norvegicus [13]) was 5.5 100ml g-1 min-1, the Blood flow (Rattus norvegicus [14]) was 1.41 100ml g-1 min-1 and the Blood flow (Rattus norvegicus [15]) was 2.61 100ml g-1 min-1. The Blood flow (Rattus norvegicus [16]) was 1.06 100ml g-1 min-1, the Blood flow (Rattus norvegicus [17]) was 0.82 100ml g-1 min-1 and the Blood flow (Rattus norvegicus [18]) was 0.87 100ml g-1 min-1. The Blood flow (Rattus norvegicus [19]) was 0.66 100ml g-1 min-1, the Blood flow (Rattus norvegicus [20]) was 5.18 100ml g-1 min-1 and the Blood flow (Rattus norvegicus [21]) was 5.75 100ml g-1 min-1. For the same compound, the Blood flow (Rattus norvegicus [22]) was 3.97 100ml g-1 min-1, the Blood flow (Rattus norvegicus [23]) was 3.21 100ml g-1 min-1 and the Blood flow (Rattus norvegicus [24]) was 2.84 100ml g-1 min-1. The Blood flow (Rattus norvegicus [25]) was 3.9 100ml g-1 min-1, the Blood flow (Rattus norvegicus [26]) was 1.98 100ml g-1 min-1 and the Blood flow (Rattus norvegicus [27]) was 1.99 100ml g-1 min-1. For the same compound, the Blood flow (Rattus norvegicus [28]) was 0.85 100ml g-1 min-1, the Blood flow (Rattus norvegicus [29]) was 4.76 100ml g-1 min-1 and the Blood flow (Rattus norvegicus [30]) was 1.45 100ml g-1 min-1. The Blood flow (Rattus norvegicus [31]) was 3.12 100ml g-1 min-1, the Blood flow (Rattus norvegicus [32]) was 4.18 100ml g-1 min-1 and the Blood flow (Rattus norvegicus [33]) was 2.03 100ml g-1 min-1. For the same compound, the Blood flow (Rattus norvegicus [34]) was 1.5 100ml g-1 min-1, the Blood flow (Rattus norvegicus [35]) was 4.77 100ml g-1 min-1 and the Blood flow (Rattus norvegicus [36]) was 1.12 100ml g-1 min-1. The Blood flow (Rattus norvegicus [37]) was 3.21 100ml g-1 min-1, the Blood flow (Rattus norvegicus [38]) was 5.79 100ml g-1 min-1 and the Blood flow (Rattus norvegicus [39]) was 3.78 100ml g-1 min-1. The Blood flow (Rattus norvegicus [40]) was 1.4 100ml g-1 min-1, the Blood flow (Rattus norvegicus [41]) was 3.09 100ml g-1 min-1 and the Blood flow (Rattus norvegicus [42]) was 1.89 100ml g-1 min-1. For the same compound, the Blood flow (Rattus norvegicus [43]) was 4.08 100ml g-1 min-1, the Blood flow (Rattus norvegicus [44]) was 3.77 100ml g-1 min-1 and the Blood flow (Rattus norvegicus [45]) was 3.49 100ml g-1 min-1. For the same compound, the Blood flow (Rattus norvegicus [46]) was 1.01 100ml g-1 min-1.

With `Cc1c(C(C)C)c(=O)n(-c2ccccc2)n1C` [PROPYPHENAZONE] the Blood flow (Rattus norvegicus [1]) was 5.29 100ml g-1 min-1, the Blood flow (Rattus norvegicus [2]) was 3.56 100ml g-1 min-1 and the Blood flow (Rattus norvegicus [3]) was 1.73 100ml g-1 min-1. For the same compound, the Blood flow (Rattus norvegicus [4]) was 1.34 100ml g-1 min-1, the Blood flow (Rattus norvegicus [5]) was 1.49 100ml g-1 min-1 and the Blood flow (Rattus norvegicus [6]) was 5.34 100ml g-1 min-1. For the same compound, the Blood flow (Rattus norvegicus [7]) was 1.43 100ml g-1 min-1, the Blood flow (Rattus norvegicus [8]) was 3.63 100ml g-1 min-1 and the Blood flow (Rattus norvegicus [9]) was 0.97 100ml g-1 min-1. The Blood flow (Rattus norvegicus [10]) was 2.18 100ml g-1 min-1, the Blood flow (Rattus norvegicus [11]) was 1.3 100ml g-1 min-1 and the Blood flow (Rattus norvegicus [12]) was 1.98 100ml g-1 min-1. For the same compound, the Blood flow (Rattus norvegicus [13]) was 6.95 100ml g-1 min-1, the Blood flow (Rattus norvegicus [14]) was 1.35 100ml g-1 min-1 and the Blood flow (Rattus norvegicus [15]) was 2.85 100ml g-1 min-1. The Blood flow (Rattus norvegicus [16]) was 0.95 100ml g-1 min-1, the Blood flow (Rattus norvegicus [17]) was 0.83 100ml g-1 min-1 and the Blood flow (Rattus norvegicus [18]) was 0.87 100ml g-1 min-1. For the same compound, the Blood flow (Rattus norvegicus [19]) was 0.73 100ml g-1 min-1, the Blood flow (Rattus norvegicus [20]) was 6.94 100ml g-1 min-1 and the Blood flow (Rattus norvegicus [21]) was 7.24 100ml g-1 min-1. The Blood flow (Rattus norvegicus [22]) was 5.46 100ml g-1 min-1, the Blood flow (Rattus norvegicus [23]) was 3.9 100ml g-1 min-1 and the Blood flow (Rattus norvegicus [24]) was 2.77 100ml g-1 min-1. The Blood flow (Rattus norvegicus [25]) was 3.45 100ml g-1 min-1, the Blood flow (Rattus norvegicus [26]) was 1.91 100ml g-1 min-1 and the Blood flow (Rattus norvegicus [27]) was 1.99 100ml g-1 min-1. The Blood flow (Rattus norvegicus [28]) was 0.91 100ml g-1 min-1, the Blood flow (Rattus norvegicus [29]) was 5.3 100ml g-1 min-1 and the Blood flow (Rattus norvegicus [30]) was 1.36 100ml g-1 min-1. The Blood flow (Rattus norvegicus [31]) was 2.36 100ml g-1 min-1, the Blood flow (Rattus norvegicus [32]) was 5.49 100ml g-1 min-1 and the Blood flow (Rattus norvegicus [33]) was 2.26 100ml g-1 min-1. The Blood flow (Rattus norvegicus [34]) was 1.45 100ml g-1 min-1, the Blood flow (Rattus norvegicus [35]) was 6.84 100ml g-1 min-1 and the Blood flow (Rattus norvegicus [36]) was 1.05 100ml g-1 min-1. The Blood flow (Rattus norvegicus [37]) was 3.34 100ml g-1 min-1, the Blood flow (Rattus norvegicus [38]) was 5.66 100ml g-1 min-1 and the Blood flow (Rattus norvegicus [39]) was 4.66 100ml g-1 min-1. The Blood flow (Rattus norvegicus [40]) was 1.45 100ml g-1 min-1, the Blood flow (Rattus norvegicus [41]) was 3.65 100ml g-1 min-1 and the Blood flow (Rattus norvegicus [42]) was 1.89 100ml g-1 min-1. The Blood flow (Rattus norvegicus [43]) was 4.97 100ml g-1 min-1, the Blood flow (Rattus norvegicus [44]) was 4.18 100ml g-1 min-1 and the Blood flow (Rattus norvegicus [45]) was 4.91 100ml g-1 min-1. For the same compound, the Blood flow (Rattus norvegicus [46]) was 1 100ml g-1 min-1.
